Source: PMC3914206

What was measured:
Format in all cases: binding
[1] = molecular target: T1, panel of 442 kinases (Homo sapiens, UniProt P10721, D816H); conditions: Compound Concentration 10 µM
T1 construct: purchased KINOMEscan
Description: (§1) We assessed the selectivity of members of this scaffold using the KINOMEscan methodology across a near comprehensive panel of 442 kinases [[18,27]].

[2] = molecular target: T2, panel of 442 kinases (Homo sapiens, UniProt P29597); conditions: compound concentration 10 µM; for % Ctrl, TYK2(JH1domain-catalytic): kinase TYK2(JH1domain-catalytic); for % Ctrl, TYK2(JH2domain-pseudokinase): kinase TYK2(JH2domain-pseudokinase)
T2 construct: purchased KINOMEscan
T2 sequence (P29597 whole entry): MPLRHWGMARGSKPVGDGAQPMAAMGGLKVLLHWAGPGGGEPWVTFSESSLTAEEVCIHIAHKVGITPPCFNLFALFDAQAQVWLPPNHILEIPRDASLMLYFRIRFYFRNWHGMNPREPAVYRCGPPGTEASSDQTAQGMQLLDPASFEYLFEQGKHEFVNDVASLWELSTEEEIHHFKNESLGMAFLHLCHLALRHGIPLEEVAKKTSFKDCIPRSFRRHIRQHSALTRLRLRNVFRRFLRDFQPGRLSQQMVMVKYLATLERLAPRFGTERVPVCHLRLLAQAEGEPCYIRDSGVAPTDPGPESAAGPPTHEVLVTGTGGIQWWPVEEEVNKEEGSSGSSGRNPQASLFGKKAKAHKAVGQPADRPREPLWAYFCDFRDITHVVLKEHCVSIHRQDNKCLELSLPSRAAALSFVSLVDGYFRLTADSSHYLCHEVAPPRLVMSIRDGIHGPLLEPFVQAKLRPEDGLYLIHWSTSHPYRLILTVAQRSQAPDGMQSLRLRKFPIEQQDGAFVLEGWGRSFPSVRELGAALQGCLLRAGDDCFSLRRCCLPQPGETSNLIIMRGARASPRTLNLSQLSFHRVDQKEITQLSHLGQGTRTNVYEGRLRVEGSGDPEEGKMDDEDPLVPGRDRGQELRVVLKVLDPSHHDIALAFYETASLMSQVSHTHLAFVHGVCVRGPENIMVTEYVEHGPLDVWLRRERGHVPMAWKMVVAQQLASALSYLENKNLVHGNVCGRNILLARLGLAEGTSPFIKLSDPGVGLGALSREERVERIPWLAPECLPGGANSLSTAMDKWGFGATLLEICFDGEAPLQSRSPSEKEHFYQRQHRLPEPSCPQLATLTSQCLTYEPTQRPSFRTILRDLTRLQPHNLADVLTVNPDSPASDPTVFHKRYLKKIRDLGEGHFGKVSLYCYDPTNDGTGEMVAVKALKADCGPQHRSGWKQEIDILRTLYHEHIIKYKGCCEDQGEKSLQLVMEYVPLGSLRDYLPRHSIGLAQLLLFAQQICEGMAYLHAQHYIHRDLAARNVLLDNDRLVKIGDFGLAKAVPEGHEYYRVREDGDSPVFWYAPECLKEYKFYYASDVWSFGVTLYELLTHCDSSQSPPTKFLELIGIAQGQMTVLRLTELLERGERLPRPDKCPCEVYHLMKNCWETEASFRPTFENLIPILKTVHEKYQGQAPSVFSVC
Description: as §1

[3] = molecular target: T3, panel of 442 kinases (Homo sapiens, UniProt O00750); conditions: Compound Concentration 10 µM
T3 construct: purchased KINOMEscan
T3 sequence (O00750 whole entry): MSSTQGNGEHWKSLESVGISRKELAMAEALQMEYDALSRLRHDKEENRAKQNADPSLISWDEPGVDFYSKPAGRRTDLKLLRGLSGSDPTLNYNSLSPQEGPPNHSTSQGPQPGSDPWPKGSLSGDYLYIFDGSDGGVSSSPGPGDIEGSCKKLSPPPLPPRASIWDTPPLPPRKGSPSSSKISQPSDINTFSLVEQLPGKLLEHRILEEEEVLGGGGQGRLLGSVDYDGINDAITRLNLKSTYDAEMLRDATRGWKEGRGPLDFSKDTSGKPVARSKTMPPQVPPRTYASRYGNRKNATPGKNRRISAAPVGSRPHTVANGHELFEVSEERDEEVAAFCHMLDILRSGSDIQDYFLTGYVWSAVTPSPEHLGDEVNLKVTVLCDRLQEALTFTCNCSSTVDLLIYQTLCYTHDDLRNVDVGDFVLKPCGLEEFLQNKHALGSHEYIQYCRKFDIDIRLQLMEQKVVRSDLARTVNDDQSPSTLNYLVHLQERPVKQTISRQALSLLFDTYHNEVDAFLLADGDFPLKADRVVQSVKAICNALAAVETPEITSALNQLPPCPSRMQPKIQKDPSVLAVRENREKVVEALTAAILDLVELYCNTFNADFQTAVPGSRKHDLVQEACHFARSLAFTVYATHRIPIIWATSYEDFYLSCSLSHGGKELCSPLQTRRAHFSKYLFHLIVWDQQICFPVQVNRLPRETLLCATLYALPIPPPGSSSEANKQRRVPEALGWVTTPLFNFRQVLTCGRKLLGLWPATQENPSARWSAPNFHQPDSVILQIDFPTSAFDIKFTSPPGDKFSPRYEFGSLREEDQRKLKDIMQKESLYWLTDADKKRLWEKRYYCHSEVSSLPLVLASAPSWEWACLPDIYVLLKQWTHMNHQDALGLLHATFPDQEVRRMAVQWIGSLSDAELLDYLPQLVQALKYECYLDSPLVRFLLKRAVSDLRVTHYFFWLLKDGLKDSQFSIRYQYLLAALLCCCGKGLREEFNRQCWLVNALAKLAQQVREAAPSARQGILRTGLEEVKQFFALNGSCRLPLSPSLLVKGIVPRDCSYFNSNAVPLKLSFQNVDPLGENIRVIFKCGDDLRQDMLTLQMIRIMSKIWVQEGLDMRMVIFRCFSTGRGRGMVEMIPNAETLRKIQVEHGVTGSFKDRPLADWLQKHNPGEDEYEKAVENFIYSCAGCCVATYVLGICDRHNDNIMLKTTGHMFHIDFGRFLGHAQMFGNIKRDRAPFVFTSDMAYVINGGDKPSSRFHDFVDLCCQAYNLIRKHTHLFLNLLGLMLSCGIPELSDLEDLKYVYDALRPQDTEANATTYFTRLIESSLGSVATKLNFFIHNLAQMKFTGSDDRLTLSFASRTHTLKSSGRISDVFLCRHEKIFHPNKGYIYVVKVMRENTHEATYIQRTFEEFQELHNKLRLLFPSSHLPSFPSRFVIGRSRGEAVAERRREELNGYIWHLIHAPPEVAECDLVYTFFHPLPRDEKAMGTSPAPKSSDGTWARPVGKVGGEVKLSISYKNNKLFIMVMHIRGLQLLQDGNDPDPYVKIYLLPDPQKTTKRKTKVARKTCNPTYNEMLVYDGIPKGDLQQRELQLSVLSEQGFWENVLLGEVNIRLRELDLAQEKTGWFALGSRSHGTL
Description: as §1

[4] = molecular target: T4, panel of 442 kinases (Homo sapiens, UniProt O75582); conditions: Compound Concentration 10 µM
T4 construct: purchased KINOMEscan
T4 sequence (O75582 whole entry): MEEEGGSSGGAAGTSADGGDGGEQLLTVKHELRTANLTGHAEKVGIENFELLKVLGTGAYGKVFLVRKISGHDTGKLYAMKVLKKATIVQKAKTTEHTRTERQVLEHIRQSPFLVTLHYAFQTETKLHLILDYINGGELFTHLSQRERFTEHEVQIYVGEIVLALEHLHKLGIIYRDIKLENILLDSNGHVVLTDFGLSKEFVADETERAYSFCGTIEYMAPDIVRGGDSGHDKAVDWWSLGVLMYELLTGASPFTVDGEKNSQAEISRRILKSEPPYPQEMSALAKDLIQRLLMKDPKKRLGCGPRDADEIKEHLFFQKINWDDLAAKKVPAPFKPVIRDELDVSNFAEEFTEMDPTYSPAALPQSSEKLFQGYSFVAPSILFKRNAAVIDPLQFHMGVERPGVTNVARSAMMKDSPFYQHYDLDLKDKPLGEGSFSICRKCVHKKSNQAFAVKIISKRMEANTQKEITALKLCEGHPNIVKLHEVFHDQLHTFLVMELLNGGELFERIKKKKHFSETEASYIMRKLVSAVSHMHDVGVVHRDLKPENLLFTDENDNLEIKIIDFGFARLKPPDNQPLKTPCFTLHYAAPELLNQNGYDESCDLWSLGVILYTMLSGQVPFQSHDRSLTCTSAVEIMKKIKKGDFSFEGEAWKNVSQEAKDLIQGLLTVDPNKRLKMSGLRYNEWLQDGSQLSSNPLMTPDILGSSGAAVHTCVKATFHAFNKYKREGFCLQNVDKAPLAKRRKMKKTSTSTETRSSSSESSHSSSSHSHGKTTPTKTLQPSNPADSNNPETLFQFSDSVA
Description: as §1

T1 sequence (P10721 26-976 D816H): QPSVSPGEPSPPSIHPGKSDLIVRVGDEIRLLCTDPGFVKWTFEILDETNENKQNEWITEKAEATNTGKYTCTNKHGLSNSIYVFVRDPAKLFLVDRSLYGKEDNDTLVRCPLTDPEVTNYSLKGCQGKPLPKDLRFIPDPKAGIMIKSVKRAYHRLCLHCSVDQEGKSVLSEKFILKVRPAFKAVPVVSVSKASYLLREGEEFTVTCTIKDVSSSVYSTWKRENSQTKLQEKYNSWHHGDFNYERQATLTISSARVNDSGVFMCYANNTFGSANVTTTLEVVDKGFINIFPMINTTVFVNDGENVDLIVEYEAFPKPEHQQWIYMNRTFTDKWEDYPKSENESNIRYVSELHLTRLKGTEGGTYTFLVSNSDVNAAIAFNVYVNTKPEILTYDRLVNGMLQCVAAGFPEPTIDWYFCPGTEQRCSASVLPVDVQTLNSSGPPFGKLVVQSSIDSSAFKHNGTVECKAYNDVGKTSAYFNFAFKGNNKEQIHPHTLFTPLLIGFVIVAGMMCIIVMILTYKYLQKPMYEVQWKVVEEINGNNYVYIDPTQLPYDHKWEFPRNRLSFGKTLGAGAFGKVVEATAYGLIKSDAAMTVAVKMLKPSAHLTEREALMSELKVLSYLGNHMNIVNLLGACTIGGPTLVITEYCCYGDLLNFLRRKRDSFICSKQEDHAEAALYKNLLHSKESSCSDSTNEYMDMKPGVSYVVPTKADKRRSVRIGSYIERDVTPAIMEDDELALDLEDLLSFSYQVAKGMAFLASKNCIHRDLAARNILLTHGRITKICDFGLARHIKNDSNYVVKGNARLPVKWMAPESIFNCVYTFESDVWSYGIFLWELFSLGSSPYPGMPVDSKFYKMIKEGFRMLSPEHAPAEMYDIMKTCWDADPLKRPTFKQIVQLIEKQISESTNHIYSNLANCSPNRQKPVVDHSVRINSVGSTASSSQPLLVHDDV

## COc1cc(C(=O)N2CCC(N3CCN(C)CC3)CC2)ccc1Nc1ncc2c(n1)N(C)c1ccccc1C(=O)N2C [15 (LRRK2-IN-1)]
[1]
  KINOMEscan: KIT(D816H): 100
[2]
  % Ctrl, TYK2(JH1domain-catalytic): 52 % Ctrl
  % Ctrl, TYK2(JH2domain-pseudokinase): 100 % Ctrl
[3]
  KINOMEscan: PIK3C2B: 100
[4]
  KINOMEscan: RPS6KA5(Kin.Dom.1-N-terminal): 96
  KINOMEscan: RPS6KA5(Kin.Dom.2-C-terminal): 92

## COc1cc(C(=O)N2CCC(N3CCN(C)CC3)CC2)ccc1Nc1ncc2c(n1)N1CCc3cccc(c31)C(=O)N2C [Compound 24]
[4]
  KINOMEscan: RPS6KA5(Kin.Dom.2-C-terminal): 43

## COc1cc(C(=O)N2CCC(N3CCN(C)CC3)CC2)ccc1Nc1ncc2c(n1)N(C1CCCC1)c1ccccc1C(=O)N2C [Compound 25, 11-cyclopentyl-2-((2-methoxy-4-(4-(4-methylpiperazin-1-yl)piperidine-1-carbonyl)phenyl)amino)-5-methyl-5H-benzo[e]pyrimido[5,4-b][1,4]diazepin-6(11H)-one]
[1]
  KINOMEscan: KIT(D816H): 100
[2]
  % Ctrl, TYK2(JH1domain-catalytic): 100 % Ctrl
  % Ctrl, TYK2(JH2domain-pseudokinase): 100 % Ctrl
[3]
  KINOMEscan: PIK3C2B: 100
[4]
  KINOMEscan: RPS6KA5(Kin.Dom.1-N-terminal): 100
  KINOMEscan: RPS6KA5(Kin.Dom.2-C-terminal): 100

## CCOc1cc(C(=O)N2CCC(N3CCN(C)CC3)CC2)ccc1Nc1ncc2c(n1)N(C1CCCC1)c1ccccc1C(=O)N2C [Compound 26]
[1]
  KINOMEscan: KIT(D816H): 100
[2]
  % Ctrl, TYK2(JH1domain-catalytic): 81 % Ctrl
  % Ctrl, TYK2(JH2domain-pseudokinase): 100 % Ctrl
[3]
  KINOMEscan: PIK3C2B: 100
[4]
  KINOMEscan: RPS6KA5(Kin.Dom.1-N-terminal): 100
  KINOMEscan: RPS6KA5(Kin.Dom.2-C-terminal): 86
